Legend:
androgen receptor (AR) = molecular target: T1, androgen receptor (AR) (Homo sapiens, UniProt P10275, T878A); assay: Androgen-induced PSA-luciferase assay, Luciferase Assay A (LNCaP transiently transfected with PSA (6.1 kb)-luciferase reporter); type: cell-based; details: LNCaP cells, 1 h pretreatment, R1881 (1 nM) 24 h, read-out: PSA-Luc IC50 Range
T1 construct: endogenous in cells; host or cells: LNCaP
T1 sequence (P10275 1-920 T878A): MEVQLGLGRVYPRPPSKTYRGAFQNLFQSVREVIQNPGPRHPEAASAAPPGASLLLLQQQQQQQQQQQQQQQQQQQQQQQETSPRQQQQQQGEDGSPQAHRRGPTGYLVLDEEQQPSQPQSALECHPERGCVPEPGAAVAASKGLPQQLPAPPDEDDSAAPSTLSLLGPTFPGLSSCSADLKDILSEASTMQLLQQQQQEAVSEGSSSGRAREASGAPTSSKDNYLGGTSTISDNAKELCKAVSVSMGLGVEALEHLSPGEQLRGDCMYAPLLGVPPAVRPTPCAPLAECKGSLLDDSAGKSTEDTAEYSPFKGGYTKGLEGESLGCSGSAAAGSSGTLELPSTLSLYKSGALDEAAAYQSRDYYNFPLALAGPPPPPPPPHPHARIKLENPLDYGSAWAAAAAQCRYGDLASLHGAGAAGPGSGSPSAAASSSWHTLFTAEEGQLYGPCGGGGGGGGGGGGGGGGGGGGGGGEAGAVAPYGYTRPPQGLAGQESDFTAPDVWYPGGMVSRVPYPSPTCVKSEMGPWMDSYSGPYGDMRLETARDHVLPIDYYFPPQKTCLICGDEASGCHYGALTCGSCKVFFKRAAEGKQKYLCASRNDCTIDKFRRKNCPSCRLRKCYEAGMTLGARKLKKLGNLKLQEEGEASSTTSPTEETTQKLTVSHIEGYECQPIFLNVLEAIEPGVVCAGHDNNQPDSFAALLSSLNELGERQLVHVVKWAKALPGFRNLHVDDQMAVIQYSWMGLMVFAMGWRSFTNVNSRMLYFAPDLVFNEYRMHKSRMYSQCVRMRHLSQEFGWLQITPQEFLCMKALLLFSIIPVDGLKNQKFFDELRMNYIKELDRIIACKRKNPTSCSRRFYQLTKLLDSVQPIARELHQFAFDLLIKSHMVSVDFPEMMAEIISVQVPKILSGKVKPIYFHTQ
How it was run: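 LNCaP cells transfected 24 h with PSA (6.1 kb)-luciferase reporter, pretreated 1 h with compound, then stimulated 24 h with R1881 (1 nM). Firefly luminescence in lysates normalized to protein content; IC50 from activity relative to R1881-induced vehicle control.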

[1] = Microsomal stability assay, liver microsome half-life (human); type: in vitro ADME; details: pH 7.4; human liver microsomes 0.5 mg/mL + NADPH, 1 μM compound, 37° C; read-out: Liver microsome + NADPH T½ (min) Human
Description: (§1) Microsomal Stability Assay: Microsomal stability assay is a widely used in vitro model to characterize the metabolic conversion by phase I enzymes, such as cytochrome P450 (CYP) enzymes. Since metabolism is known to be highly variable in different species, microsomal stability assay is commonly run in multiple species. Metabolic stability of testing compound can be evaluated using human, rat, mouse, or other animal liver or intestine microsomes to predict intrinsic clearance.
(§2) The assay was carried out in 96-well microtiter plates at 37° C. Reaction mixtures (25 μL) contained a final concentration of 1 μM test compound, 0.5 mg/mL liver microsomes protein, and 1 mM NADPH and/or 1 mM UDPGA (with alamethicin) in 100 mM potassium phosphate, pH 7.4 buffer with 3 mM MgCl2. The incubation was done with N=1, but duplicate incubation at each time point can be prepared if necessary. At each of the time points (for example, 0, 15, 30, and 60 minutes), 150 μL of quench solution (100% acetonitrile with 0.1% formic acid) with internal standard was transferred to each well. Besides the zero minute controls, mixtures containing the same components except the NADPH can also be prepared as the negative control. Verapamil was included as a positive control to verify assay performance. Plates were sealed, vortexed, and centrifuged at 4° C. for 15 minutes at 4000 rpm. The supernatant is transferred to fresh plates for LC/MS/MS analysis.
(§3) Summarized conditions: [Compound]=1 μM, [LM]=0.5 mg/mL, [NADPH]=1 mM and/or [UDPGA]=1 mM, Buffer=100 mM Potassium Phosphate, pH 7.4 with 3 mM MgCl2, Time=0, 15, 30, and 60 min, and Temperature=37° C.
(§4) All samples were analyzed on LC/MS/MS using an AB Sciex API 4000 instrument, coupled to a Shimadzu LC-20AD LC Pump system. Analytical samples were separated using a Waters Atlantis T3 dC18 reverse phase HPLC column (20 mm×2.1 mm) at a flow rate of 0.5 mL/min. The mobile phase consisted of 0.1% formic acid in water (solvent A) and 0.1% formic acid in 100% acetonitrile (solvent B).
(§5) The extent of metabolism is calculated as the disappearance of the test compound, compared to the 0-min time incubation. Initial rates are calculated for the compound concentration and used to determine half-life (t1/2).

[2] = Microsomal stability assay, liver microsome half-life (rat); type: in vitro ADME; details: pH 7.4; rat liver microsomes 0.5 mg/mL + NADPH, 1 μM compound, 37° C; read-out: Liver microsome + NADPH T½ (min) Rat
Description: as §1, §2, §3, §4, §5

[3] = Microsomal stability assay, liver microsome half-life (mouse); type: in vitro ADME; details: pH 7.4; mouse liver microsomes 0.5 mg/mL + NADPH, 1 μM compound, 37° C; read-out: Liver microsome + NADPH T½ (min) Mouse
Description: as §1, §2, §3, §4, §5

[4] = Microsomal stability assay, liver microsome half-life (dog); type: in vitro ADME; details: pH 7.4; dog liver microsomes 0.5 mg/mL + NADPH, 1 μM compound, 37° C; read-out: Liver microsome + NADPH T½ (min) Dog
Description: as §1, §2, §3, §4, §5

[5] = Microsomal stability assay, liver microsome half-life (monkey); type: in vitro ADME; details: pH 7.4; monkey liver microsomes 0.5 mg/mL + NADPH, 1 μM compound, 37° C; read-out: Liver microsome + NADPH T½ (min) Monkey
Description: as §1, §2, §3, §4, §5

| SMILES | IC50 (androgen receptor (AR)) [nM] | half-life at 1 μM [1] [min] | half-life at 1 μM [2] [min] | half-life at 1 μM [3] [min] | half-life at 1 μM [4] [min] | half-life at 1 μM [5] [min] |
| --- | --- | --- | --- | --- | --- | --- |
| CC(C)(c1ccc(OC2CC3(C2)CN(S(C)(=O)=O)C3)cc1)c1cc(Cl)c(OCCCl)c(C#N)c1 [Compound A72] | 500 to 2000 | > 120 | > 120 | > 120 | > 120 | > 120 |
| CC(C)(c1ccc(-c2cnc(N3CC(NS(C)(=O)=O)C3)cn2)cc1)c1cc(Cl)c(OCCCl)c(C#N)c1 [Compound A37] | < 500 | > 120 | > 120 | > 120 | > 120 | 32 |
| CS(=O)(=O)Nc1cnc2cc(-c3ccc(Oc4cc(Cl)c(OCC(F)(F)F)c(C#N)c4)cc3)ccc2n1 [Compound A98] | 500 to 2000 | > 120 | > 120 | > 120 | > 120 | > 120 |
| CC(C)(c1ccc(-c2cnn(CCNS(C)(=O)=O)c2)cc1)c1cc(Cl)c(OCCCl)c(C#N)c1 [Compound A12] | 500 to 2000 | 82 | 72 | > 120 | > 120 | 19 |
| CS(=O)(=O)Nc1cnc2cc(-c3ccc(Oc4cc(Cl)c(OC5CCC5)c(C#N)c4)cc3)ccc2n1 [Compound A78] | 500 to 2000 | > 120 | > 120 | > 120 | > 120 | > 120 |
| CC(C)(c1ccc(-c2ccc(N3CC(NS(C)(=O)=O)C3)nc2)cc1)c1cc(Cl)c(OCCCl)c(C#N)c1 [Compound A11] | 500 to 2000 | 58 | 103 | > 120 | > 120 | 28 |
| [2H]C([2H])([2H])N(c1ccc(-c2ccc3nc(NS(C)(=O)=O)cnc3c2)cc1)c1cc(Cl)c(OCCCl)c(C#N)c1 [Compound A145] | 500 to 2000 | > 120 | > 120 | > 120 | > 120 | > 120 |
| CC(C)(c1ccc(OC[C@H](O)CNS(C)(=O)=O)cc1)c1cc(Cl)c(OC[C@H](O)CCl)c(Cl)c1 [X, reference compound] |  | > 120 |  |  |  |  |

Now from value to compound:

| IC50 (androgen receptor (AR)) [nM] | half-life at 1 μM [1] [min] | half-life at 1 μM [2] [min] | half-life at 1 μM [3] [min] | half-life at 1 μM [4] [min] | half-life at 1 μM [5] [min] | SMILES |
| --- | --- | --- | --- | --- | --- | --- |
| 500 to 2000 | > 120 | > 120 | > 120 | > 120 | > 120 | CC(C)(c1ccc(-c2cnn(C34CC(NS(C)(=O)=O)(C3)C4)c2)cc1)c1cc(Cl)c(OCCCl)c(C#N)c1 [Compound A75] |
| 500 to 2000 | > 120 | > 120 | > 120 | > 120 | > 120 | CS(=O)(=O)Nc1cnc2cc(-c3ccc(Oc4cc(Cl)c(OCCCl)c(C#N)c4)cc3)ccc2n1 [Compound A16, N-(6-(4-(3-chloro-4-(2-chloroethoxy)-5-cyanophenoxy)phenyl)quinoxalin-2-yl)methanesulfonamide] |
| < 500 | > 120 | > 120 | > 120 | > 120 | > 120 | COc1c(Cl)cc(Oc2ccc(-c3ccc4nc(NS(C)(=O)=O)cnc4c3)cc2)cc1C#N [Compound A43] |
| < 500 | > 120 | 112 | > 120 | > 120 | 117 | CC(C)(c1ccc(-c2cnn([C@H]3C[C@H](NS(C)(=O)=O)C3)c2)cc1)c1cc(Cl)c(OCCCl)c(C#N)c1 [Compound A44, N-((1r,3r)-3-(4-(4-(2-(3-chloro-4-(2-chloroethoxy)-5-cyanophenyl)propan-2-yl)phenyl)-1H-pyrazol-1-yl)cyclobutyl)methanesulfonamide] |
| 500 to 2000 | > 120 | > 120 | > 120 | > 120 | > 120 | COc1c(Cl)cc(C(C)(C)c2ccc(OCc3ccnc(NS(C)(=O)=O)n3)cc2)cc1C#N [Compound A17, N-(4-((4-(2-(3-chloro-5-cyano-4-methoxyphenyl)propan-2-yl)phenoxy)methyl)pyrimidin-2-yl)methanesulfonamide] |
| 500 to 2000 | > 120 | > 120 | > 120 | > 120 | > 120 | CS(=O)(=O)Nc1nc2ccc(-c3ccc(Oc4cc(Cl)c(OCCCl)c(C#N)c4)cc3)cc2cc1F [Compound A157] |
| < 500 | > 120 | > 120 | > 120 | > 120 | > 120 | COc1c(Cl)cc(N(c2ccc(-c3ccc4nc(NS(C)(=O)=O)cnc4c3)cc2)C2CC2)cc1C#N [Compound A163] |
| 500 to 2000 | > 120 | > 120 | > 120 | > 120 | > 120 | CS(=O)(=O)Nc1cnc2cc(-c3ccc(Oc4cc(Cl)c(N5CCOCC5)c(C#N)c4)cc3)ccc2n1 [Compound A83] |
| 500 to 2000 | > 120 | > 120 | > 120 | > 120 | > 120 | CS(=O)(=O)Nc1cnc2cc(-c3ccc(Oc4cc(Cl)c(OC5CC5)c(C#N)c4)cc3)ccc2n1 [Compound A97, N-(6-(4-(3-chloro-5-cyano-4-cyclopropoxyphenoxy)phenyl)quinoxalin-2-yl) methanesulfonamide] |
|  | > 120 | > 120 | > 120 | > 120 | > 120 | CNC(=O)c1ccc(N2C(=S)N(c3ccc(C#N)c(C(F)(F)F)c3)C(=O)C2(C)C)cc1F [Enzalutamide, enzalutamide, reference compound] |
